Results reported in patent US11197891B2, “Therapies with lanthionine C-like protein 2 ligands and cells prepared therewith” (Landos Biopharma, Inc., priority 2017, dated 2021).
Like-named read-outs stand apart in the source and are kept apart here.

What was measured:
CD4+ T cells = assay: Differentiation of CD4+ T cells into Tregs with metabolic modulators; assay type: cell-based, mice; conditions: BT-11 with PS-48 (5 μM), DASA-58 (10 μM) or thapsigargin (10 nM)
Method: (§1) Spleens from WT and Lancl2−/− mice were excised and crushed to generate a single cell suspension. CD4+ T cell fraction was enriched by negative selection via magnetic sorting with the BD IMag system. Naïve CD4+ T cells were obtained by incubation with a biotinylated CD62L antibody followed by conjugation to streptavidin coated magnetic beads. Naïve cells were incubated for 48 hours within anti-CD3 coated tissue culture plates in complete IMDM media containing all-trans retinoic acid and purified TGF-β to stimulate differentiation into Tregs. […] Metabolic modulators, PS-48 (5 μM), DASA-58 (10 μM), and thapsigargin (10 nM), were added at 0 h. […] Six hours prior to assay, cells were stimulated with PMA and ionomycin. Cells were collected from plate for downstream analysis by flow cytometry, gene expression and metabolic assay.

LANCL2 [1] = target: T1, LANCL2 (Homo sapiens, UniProt Q9NS86); assay: Surface plasmon resonance (SPR) binding to LANCL2; conditions: Tables 1A and 1B; read-out: SPR Affinity to LANCL2 (Kd)
T1 sequence (Q9NS86 1-450): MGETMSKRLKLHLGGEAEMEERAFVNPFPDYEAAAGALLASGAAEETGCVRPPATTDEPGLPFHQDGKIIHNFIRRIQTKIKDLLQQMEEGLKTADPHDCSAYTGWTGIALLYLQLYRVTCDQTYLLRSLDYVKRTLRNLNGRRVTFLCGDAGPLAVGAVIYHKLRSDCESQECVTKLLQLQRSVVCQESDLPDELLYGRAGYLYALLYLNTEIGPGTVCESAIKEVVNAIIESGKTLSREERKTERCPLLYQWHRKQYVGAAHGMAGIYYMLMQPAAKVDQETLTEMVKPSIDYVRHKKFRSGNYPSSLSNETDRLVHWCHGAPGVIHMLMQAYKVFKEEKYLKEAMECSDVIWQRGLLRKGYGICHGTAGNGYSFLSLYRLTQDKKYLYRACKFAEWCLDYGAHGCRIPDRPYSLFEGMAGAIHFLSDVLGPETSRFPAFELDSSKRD

[2] = system: PBMCs from Crohn's disease donors; assay: PBMCs isolated from Crohn's disease donors, 24 hour culture; assay type: cell-based, human; conditions: presence of thapsigargin
Method: Fresh de-identified whole blood was obtained from commercial vendor. Blood was diluted and purified for PBMC fraction by LeukoSep tube. Remaining red blood cells were lysed by hypotonic lysis. […] For siRNA experiments, cells were first incubated with an OriGene 3-mer LANCL2 siRNA or scrambled control suspended within ViromerGreen transfection reagent for 6 hours. […] Cells were stimulated with PMA and ionomycin six hours prior to assay.
Whole blood was obtained from Crohn's disease patients, clinically categorized as mild to moderate disease.

LANCL2 [3] = target: T1, LANCL2; conditions: rows marked REF 18; read-out: SPR Affinity to LANCL2 (Kd); cited from earlier work
C. difficile = C. difficile culture in chopped meat media (anti-microbial properties); conditions: 10 ug/mL
WT Tregs = assay: Metabolic analysis (pyruvate kinase, pyruvate dehydrogenase, PEP) in in vitro Tregs; assay type: cell-based, mice; conditions: PS-48 (5 μM)
Method: (§2) Colons and cells were suspended within assay specific buffer and homogenized for 10 seconds. Homogenate was centrifuged for 10 minutes at 10,000×g. For enzyme activity assays, supernatant was collected and plated. Samples were mixed with enzyme developer and substrate. Colorimetric detection of NADH production was measured using a BioTek μQuant plate reader in combination with Gen5 software. For PEP assay, supernatant was deproteinized using perchloric acid mediated purification. Samples were plated and mixed with a probe, converter, developer mix. PEP concentration was measured by absorbance quantification on plate reader.
as §1, with “Cells were collected from plate for downstream analysis by flow cytometry, gene expression and metabolic assay.” left out

Mdr1a−/− mice = Mdr1a−/− mice with PS-48 injections (in vivo validation of immunometabolic effect); conditions: weekly intraperitoneal injections of PS-48
Method: as §2
To validate the in vitro immunometabolic findings, Mdr1a−/− mice were given weekly intraperitoneal injections of PS-48 or vehicle control. […] Similar patterns were observed within the DSS model.

## Nc1cccc(S(=O)(=O)N2CCCN(S(=O)(=O)c3ccc4c(c3)OCCO4)CC2)c1 [DASA-58]
CD4+ T cells
  Treg cell differentiation: promotes high level differentiation in both treated and untreated cells

## O=C(c1cccc(-c2nc3ccccc3[nH]2)c1)N1CCN(C(=O)c2cccc(-c3nc4ccccc4[nH]3)c2)CC1 [BT-4]
LANCL2 [1]
  Kd: 84.3 µM

## O=C1CCC(O)(/C=C/c2cc(C(=O)O)ccn2)CC1 [BT-ABA-16]
LANCL2 [1]
  Kd: 4.85 µM

## O=C1CC=C(/C=C/c2ccc(C(=O)O)o2)CC1 [BT-ABA-5a]
LANCL2 [1]
  Kd: 11.7 µM

## O=C1CCC(O)(/C=C/c2cccc(C(=O)O)n2)CC1 [BT-ABA-13]
LANCL2 [1]
  Kd: 4.65 µM

## O=C(Nc1ccc(NC(=O)c2cccc(-c3nc4ccccc4[nH]3)c2)cc1)c1cccc(-c2nc3ccccc3[nH]2)c1 [BT-6]
LANCL2 [1]
  Kd: 18.2 µM

## C/C=C(/C)C(=O)O[C@H]1C(C)=C2[C@H]([C@@H]1OC(=O)CCCCCCC)[C@@](C)(OC(C)=O)C[C@H](OC(=O)CCC)[C@@]1(O)[C@H]2OC(=O)[C@@]1(C)O [thapsigargin, reference compound]
[2]
  induction of FOXP3+ cells in PBMCs treated with BT-11: prevented the increased induction of FOXP3+ cells
CD4+ T cells
  Treg cell differentiation: diminishes the BT-11 induced increase in Treg cell differentiation

## O=C1CCC(O)(/C=C/c2ccc(C(=O)O)o2)CC1 [BT-ABA-25]
LANCL2 [1]
  Kd: 177 µM

## O=C1CCC(O)(/C=C/c2cccc(C(=O)O)c2)CC1 [BT-BA-6]
LANCL2 [1]
  Kd: 163 µM

## O=C(Nc1cccc(-c2nc3c([nH]2)C=CCC3)c1)c1ccc(C(=O)Nc2cccc(-c3nc4c([nH]3)C=CCC4)c2)cc1 [Compound 61610]
LANCL2 [3]
  Kd: 6.2 µM

## CC1=CC(=O)CC(C)(C)[C@]1(O)/C=C/C(C)=C\C(=O)O [ABA, abscisic acid]
LANCL2 [3]
  Kd: 2.3 µM

## O=C(c1cccc(-c2nc3ccccc3[nH]2)n1)N1CCN(C(=O)c2cccc(-c3nc4ccccc4o3)n2)CC1 [BT-15]
LANCL2 [1]
  Kd: 21.4 µM

## CN[C@H](CC(C)C)C(=O)N[C@H]1C(=O)N[C@@H](CC(N)=O)C(=O)N[C@H]2C(=O)N[C@H]3C(=O)N[C@H](C(=O)N[C@H](C(=O)O)c4cc(O)cc(O)c4-c4cc3ccc4O)[C@H](O)c3ccc(c(Cl)c3)Oc3cc2cc(c3O[C@@H]2O[C@H](CO)[C@@H](O)[C@H](O)[C@H]2O[C@H]2C[C@](C)(N)[C@H](O)[C@H](C)O2)Oc2ccc(cc2Cl)[C@H]1O [vancomycin, reference compound]
C. difficile
  reduction of colony forming units: 95%
C. difficile; from 4 million
  colony forming units: under 200,000

## O=C(O)/C=C(/CCc1ccc(Cl)cc1)c1ccccc1 [PS-48, reference compound]
WT Tregs
  BT-11 induced change in PEP and PDH activity under PS-48: abrogated by treatment with PS-48
Mdr1a−/− mice
  BT-11-induced changes across clinical, cellular and metabolic measures: effectively blocked the BT-11-induced changes
CD4+ T cells
  Treg cell differentiation: abrogates the increased differentiation of Tregs generated by BT-11
